One data set deals with T1, hNTS1 receptor (Homo sapiens, UniProt P30989).
T1 construct: membranes prepared from them
The data set is described as follows: Competitive radioligand binding assay on the hNTS1 receptor. The note with it: IC50 NTS1, displacement of 125I-[Tyr3]-NT, membranes of CHO-K1 cells expressing hNTS1. The gist of the method:
(§1)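 IC50 values came from one-site competition curves against ¹²⁵I-[Tyr³]-NT after 60 min at 25 °C (pH 7.5 Tris, 0.2% BSA), with analogues at 10⁻¹¹–10⁻⁴ M and nonspecific binding set by 10⁻⁵ M NT(8-13). hNTS1 used 15 µg CHO-K1 membranes with […] tracer; hNTS2 used 50 µg 1321N1 membranes with […] tracer.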

The target in another data set is T2, hNTS2 receptor (Homo sapiens, UniProt O95665).
T2 construct: membranes prepared from them
T2 sequence (O95665 whole entry): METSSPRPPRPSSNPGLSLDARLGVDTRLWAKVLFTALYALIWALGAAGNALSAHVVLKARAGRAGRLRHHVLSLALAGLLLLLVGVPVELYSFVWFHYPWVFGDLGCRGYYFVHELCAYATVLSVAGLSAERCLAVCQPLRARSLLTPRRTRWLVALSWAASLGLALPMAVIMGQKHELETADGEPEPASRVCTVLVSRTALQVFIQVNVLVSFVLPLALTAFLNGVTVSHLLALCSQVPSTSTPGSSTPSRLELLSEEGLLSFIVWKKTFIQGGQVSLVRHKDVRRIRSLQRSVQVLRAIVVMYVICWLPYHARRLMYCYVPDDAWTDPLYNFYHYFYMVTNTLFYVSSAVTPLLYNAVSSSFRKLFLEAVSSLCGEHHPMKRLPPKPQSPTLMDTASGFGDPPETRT
The data set is described as follows: Competitive radioligand binding assay on the hNTS2 receptor. The settings on record: for pIC50: IC50 NTS2, displacement of 125I-[Tyr3]-NT, membranes of 1321N1 cells expressing hNTS2; for Selectivity: ratio IC50 for NTS1 : IC50 for NTS2. The gist of the method: as §1
(Displacement assays read how much labelled ligand stays bound in the presence of the test substance.)

A short description of data set [1]: Body temperature (hypothermia) after intrathecal injection. The note with it: vs saline. The data set is classed as in vivo, rat. As for the experimental part: Body temperature was measured using a thermistor probe inserted into the rectum of the rats. Animals were individually acclimatized to manipulations and thermistor probe 5 min/day for three consecutive days. […] Changes in body temperature (Δ body temperature) were determined from baseline for each time and each animal. Data represents the mean±SEM of 5-6 rats for each condition.
Data are expressed as mean±standard errors of the mean (SEM). All graphs and statistical analysis were performed using GraphPad Prism™ 7 (GraphPad software, La Jolla, CA, USA). […] A two-way ANOVA followed by Tukey's multiple comparisons test was used to determine the significant differences in changes in body temperature between different concentrations of compounds and saline (FIG. 9). The % MPE for the tail-flick test and the areas under the curve for the formalin test were analyzed using a one-way ANOVA followed by a Dunnett's multiple comparisons test to compare different concentrations of compounds and saline treatment (FIGS. 2B, 4B, 7A-B and 8B-D). […] Nonlinear regression using three parameters was performed for % of ileum relaxation and IC50 value was obtained from the resulting dose-response curve (FIG. 11). A difference in response was considered significant with p-values *p<0.05, **p<0.01, ***p<0.001 and **p<0.0001.

SMILES strings stand for the structures. pIC50: −log10 of the molar value. Values joined by “and” are separate entries in the source; they are usually repeats but may differ in a detail not shown here. Equal entries are not always repeated. “Also recorded” adds a separate entry of the source. Where a SMILES comes first, the peptide text is derived from it. Bridges are numbered along the chain shown (N, C = ends). [ ]: non-standard residue; d: D form. Ala(cPent) = N[C@@H](CC1CCCC1)C(=O)O; AllylGly = C=CC[C@H](N)C(=O)O

T1 sequence (P30989 whole entry): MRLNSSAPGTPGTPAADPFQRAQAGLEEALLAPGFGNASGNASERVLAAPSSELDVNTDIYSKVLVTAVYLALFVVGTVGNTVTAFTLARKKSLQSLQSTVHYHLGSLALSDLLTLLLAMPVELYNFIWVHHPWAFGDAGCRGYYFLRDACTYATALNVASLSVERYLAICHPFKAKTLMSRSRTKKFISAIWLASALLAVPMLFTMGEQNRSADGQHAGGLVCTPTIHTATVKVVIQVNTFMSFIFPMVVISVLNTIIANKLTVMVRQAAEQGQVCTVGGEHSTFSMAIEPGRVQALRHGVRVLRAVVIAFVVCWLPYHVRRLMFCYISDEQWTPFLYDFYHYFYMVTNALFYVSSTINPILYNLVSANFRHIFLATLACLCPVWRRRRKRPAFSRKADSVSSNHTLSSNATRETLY

For the molecule `CC(C)C[C@H](NC(=O)[C@H](Cc1ccc(O)cc1)NC(=O)[C@@H]1CC=CC[C@H](N)C(=O)N[C@@H](CCCCN)C(=O)N[C@@H](CCCCN)C(=O)N1)C(=O)O` [compound 34, c[G(All)KKG(All)]YL] (H-[AllylGly]KK[AllylGly]YL-OH; staple 1-4), the pIC50 (usually −log10 of the IC50, conventionally taken in molar units) on hNTS1 receptor is 3.70 and 4.00; on hNTS2 receptor, 7.22. Further, the Selectivity on hNTS2 receptor is 3339 and 1685. In addition, the “Hypothermia (i.t.)” value in data set [1] (150 μg/kg i.t.) is listed as “no significant variation in body temperature; also recorded: No hypothermia”.
With `NCCCC[C@@H]1NC(=O)[C@H](CCCCN)NC(=O)[C@@H](N)CC=CC[C@@H](C(=O)N[C@@H](Cc2ccc(O)cc2)C(=O)N[C@@H](CC2CCCC2)C(=O)O)NC1=O` [compound 67, c[G(All)KKG(All)]YA(cyclopentyl)] (H-[AllylGly]KK[AllylGly]Y[Ala(cPent)]-OH; staple 1-4), the pIC50 on hNTS1 receptor was under 4.00; on hNTS2 receptor, 8.51. In addition, the Selectivity on hNTS2 receptor is >32 680. The “Hypothermia (i.t.)” value in data set [1] (209 nmol/kg i.t.) is recorded as “no significant variation in body temperature; also recorded: No hypothermia”.

For the origin of these results see US12358948B2, “Neurotensinergic agonists and methods of using same preventing or treating pain” (priority 2019, dated 2025).
